Reference: ChEMBL document CHEMBL1201862, “PubChem BioAssay data set” (2004)
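Grown in 96-well plates, cells were treated for 48 hours with each compound at five concentrations. Insufficient inhibition: endpoint recorded as highest concentration tested. GI50 is the concentration that inhibits growth by half.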 The source made the active and inactive calls. No stated cut-off is given here; in the data, active = GI50 up to about 1.1 µM and inactive = higher.

Legend:
Test in all cases: growth of human tumour cells (NCI), 48 h
HCC 2998 = system: HCC 2998
SN12C = system: SN12C
786-0 = system: 786-0
K562 = system: K562
SR = system: SR
COLO 205 = system: COLO 205
BT-549 = system: BT-549
OVCAR-8 = system: OVCAR-8
MDA-N = system: MDA-N
OVCAR-4 = system: OVCAR-4
SK-OV-3 = system: SK-OV-3
MCF7 = system: MCF7
Malme-3M = system: Malme-3M
RXF 393 = system: RXF 393
HCT-116 = system: HCT-116
MDA-MB-435 = system: MDA-MB-435
SK-MEL-2 = system: SK-MEL-2
NCI/ADR-RES = system: NCI/ADR-RES
SF-539 = system: SF-539
NCI-H460 = system: NCI-H460

SMILES	GI50 (HCC 2998)	GI50 (SN12C)	GI50 (786-0)	GI50 (K562)	GI50 (SR)	GI50 (COLO 205)	GI50 (BT-549)	GI50 (OVCAR-8)	GI50 (MDA-N)	GI50 (OVCAR-4)	GI50 (SK-OV-3)	GI50 (MCF7)	GI50 (Malme-3M)	GI50 (RXF 393)	GI50 (HCT-116)	GI50 (MDA-MB-435)	GI50 (SK-MEL-2)	GI50 (NCI/ADR-RES)	GI50 (SF-539)	GI50 (NCI-H460)
COc1c2c(c3c(c1CCC(=O)O)OC(C)(C)C=C3)OC(C)(C)C=C2	> 100 µM (inactive)	> 100 µM (inactive)	> 100 µM (inactive)	55.8 µM (inactive)	> 100 µM (inactive)	> 100 µM (inactive)	> 100 µM (inactive)	> 100 µM (inactive)	31.4 µM (inactive)	> 100 µM (inactive)	> 100 µM (inactive)	> 100 µM (inactive)	> 100 µM (inactive)	> 100 µM (inactive)	94.8 µM (inactive)	28.9 µM (inactive)	> 100 µM (inactive)	> 100 µM (inactive)	–	–
CC(=O)Nc1ccc2nc(-c3ccccn3)c(-c3ccccn3)nc2c1	> 100 µM (inactive)	> 100 µM (inactive)	> 100 µM (inactive)	> 100 µM (inactive)	> 100 µM (inactive)	> 100 µM (inactive)	> 100 µM (inactive)	> 100 µM (inactive)	> 100 µM (inactive)	> 100 µM (inactive)	–	> 100 µM (inactive)	> 100 µM (inactive)	89.7 µM (inactive)	–	> 100 µM (inactive)	> 100 µM (inactive)	> 100 µM (inactive)	> 100 µM (inactive)	> 100 µM (inactive)
CC1=NN(c2ccccc2Cl)C2(C1)C(Cl)C(=O)N2c1nc2ccccc2s1 (stereo unspecified)	> 100 µM (inactive)	31.8 µM (inactive)	31.8 µM (inactive)	37.5 µM (inactive)	21.1 µM (inactive)	61.1 µM (inactive)	54.6 µM (inactive)	38.1 µM (inactive)	62.7 µM (inactive)	> 100 µM (inactive)	24.7 µM (inactive)	44.8 µM (inactive)	92.5 µM (inactive)	39.1 µM (inactive)	44.9 µM (inactive)	41.8 µM (inactive)	48.9 µM (inactive)	65 µM (inactive)	–	79.6 µM (inactive)
CC(C)OC(=O)C1=C2c3ncccc3C(=O)N2[C@@H](Cl)[C@H](Cl)[C@H]1Cl	> 100 µM (inactive)	21.8 µM (inactive)	55.2 µM (inactive)	30.5 µM (inactive)	26.5 µM (inactive)	44 µM (inactive)	36.9 µM (inactive)	31.7 µM (inactive)	50.9 µM (inactive)	> 100 µM (inactive)	–	39.1 µM (inactive)	28.8 µM (inactive)	> 100 µM (inactive)	50.6 µM (inactive)	81.1 µM (inactive)	> 100 µM (inactive)	> 100 µM (inactive)	> 100 µM (inactive)	> 100 µM (inactive)
Nc1ccccc1CCN1CCN(CCCc2ccccc2)CC1	19.4 µM (inactive)	87.7 µM (inactive)	31.7 µM (inactive)	27.8 µM (inactive)	25.7 µM (inactive)	21 µM (inactive)	> 100 µM (inactive)	49.5 µM (inactive)	53 µM (inactive)	65.8 µM (inactive)	> 100 µM (inactive)	46.8 µM (inactive)	14.1 µM (inactive)	–	34.7 µM (inactive)	72.4 µM (inactive)	> 100 µM (inactive)	90.4 µM (inactive)	39.2 µM (inactive)	41.1 µM (inactive)
COC1(OC)N=C(N)C2(C#N)C(c3ccccc3)NC3=C(CCC3)C12C#N (stereo unspecified)	> 100 µM (inactive)	> 100 µM (inactive)	> 100 µM (inactive)	–	> 100 µM (inactive)	> 100 µM (inactive)	> 100 µM (inactive)	> 100 µM (inactive)	> 100 µM (inactive)	> 100 µM (inactive)	> 100 µM (inactive)	> 100 µM (inactive)	> 100 µM (inactive)	> 100 µM (inactive)	> 100 µM (inactive)	> 100 µM (inactive)	> 100 µM (inactive)	> 100 µM (inactive)	–	> 100 µM (inactive)
CC(C)CCOC(=O)NC(Nc1ccc(F)cc1)(C(F)(F)F)C(F)(F)F	21.7 µM (inactive)	36.1 µM (inactive)	> 100 µM (inactive)	0.695 µM (active)	0.679 µM (active)	18.3 µM (inactive)	9.75 µM (inactive)	51.8 µM (inactive)	2.81 µM (inactive)	–	63 µM (inactive)	23.2 µM (inactive)	> 100 µM (inactive)	> 100 µM (inactive)	65.9 µM (inactive)	13.7 µM (inactive)	53.1 µM (inactive)	52.6 µM (inactive)	16.1 µM (inactive)	41.3 µM (inactive)
Clc1ccc(NCc2nnc(CCCCCCCCc3nnc(CNc4ccc(Cl)cc4)o3)o2)cc1	> 100 µM (inactive)	> 100 µM (inactive)	> 100 µM (inactive)	> 100 µM (inactive)	> 100 µM (inactive)	> 100 µM (inactive)	> 100 µM (inactive)	> 100 µM (inactive)	> 100 µM (inactive)	> 100 µM (inactive)	> 100 µM (inactive)	> 100 µM (inactive)	> 100 µM (inactive)	> 100 µM (inactive)	> 100 µM (inactive)	> 100 µM (inactive)	> 100 µM (inactive)	> 100 µM (inactive)	–	> 100 µM (inactive)
CCOc1cc(C(=O)O)c2c(ccc3ccc(OC)c(OC)c32)c1OC	> 100 µM (inactive)	> 100 µM (inactive)	> 100 µM (inactive)	> 100 µM (inactive)	> 100 µM (inactive)	> 100 µM (inactive)	> 100 µM (inactive)	> 100 µM (inactive)	> 100 µM (inactive)	> 100 µM (inactive)	> 100 µM (inactive)	> 100 µM (inactive)	> 100 µM (inactive)	> 100 µM (inactive)	> 100 µM (inactive)	> 100 µM (inactive)	> 100 µM (inactive)	> 100 µM (inactive)	–	> 100 µM (inactive)
Nc1ccc(-c2nc3ccc(F)cc3s2)cc1I	0.121 µM (active)	> 100 µM (inactive)	40.4 µM (inactive)	> 100 µM (inactive)	> 76.2 µM (inactive)	> 100 µM (inactive)	> 100 µM (inactive)	> 79.4 µM (inactive)	> 100 µM (inactive)	–	97.3 µM (inactive)	< 0.01 µM (active)	> 100 µM (inactive)	> 26.1 µM (inactive)	< 0.01 µM (active)	> 100 µM (inactive)	> 100 µM (inactive)	> 31 µM (inactive)	5.9 µM (inactive)	> 100 µM (inactive)
C=C[C@H]1CN2CCc3c([nH]c4c([C@H]5CCCN5C)c(O)ccc34)[C@@H]2C[C@@H]1C[C@H]1c2[nH]c3ccccc3c2CCN1C [STRYCHNOPENTAMINE]	0.388 µM (active)	1.65 µM (inactive)	1.43 µM (inactive)	0.422 µM (active)	0.425 µM (active)	1.5 µM (inactive)	1.94 µM (inactive)	1.23 µM (inactive)	1.35 µM (inactive)	1.74 µM (inactive)	1.77 µM (inactive)	0.776 µM (active)	1.76 µM (inactive)	1.04 µM (active)	1.33 µM (inactive)	1.43 µM (inactive)	1.9 µM (inactive)	1.74 µM (inactive)	–	1.48 µM (inactive)
